Values quoted from earlier work in patent US20020132013A1, “Liquid cautery catheter” (priority 2001, published 2002).

Experiments:
[1] = test system: uterocomual tubal junction
[2] = test system: hemorrhagic radiation induced proctitis; conditions: topical application

| Structure (SMILES) | complications reported ([1]; 35 healthy, parous women) | bilateral tubal occlusion, share of study participants ([1]; 35 healthy, parous women, hysterosalpingography 4 months after the procedure) [%] | pregnancies reported in participants who demonstrated tubal occlusion ([1]; participants with tubal occlusion) | efficacy in control of bleeding [2] |
| --- | --- | --- | --- | --- |
| C=C(C#N)C(=O)OC [Methyl 2-cyanoacrylate] | No complications were reported | 88.2 | no pregnancies reported | – |
| C=O [formalin] | – | – | – | demonstrated the efficacy |
